Counter-ions that a name gives are not always drawn.
Experiments:
[1] = test system: sPLA2 enzymes found in human tears; assay: Susceptibility to digestion by sPLA2 enzymes found in human tears when present in a silicone hydrogel contact lens body; format: biochemical; conditions: phospholipid present in a silicone hydrogel contact lens body
Excerpt: To achieve these and other advantages, and in accordance with the purposes of the present invention, as embodied and broadly described herein, the present invention, in part relates to a hydrogel contact lens comprising a polymeric lens body loaded with 2-oleoyl phospholipid. The 2-oleoyl phospholipid is advantageously susceptible to digestion by secretory phospholipase 2-acylhydrolase (sPLA2) enzymes found in human tears, especially group IIA secretory phospholipase 2-acylhydrolase (sPLA2-IIA). The 2-oleoyl phospholipid present in the contact lens body is advantageously susceptible to digestion by sPLA2 enzymes found in human tears, especially sPLA2-IIA when the 2-oleoyl phospholipid is present in the polymeric lens body of a silicone hydrogel contact lens, such as a stenfilcon A contact lens. […] For the avoidance of doubt, while the determination of whether a 2-oleoyl phospholipid is susceptible to digestion by sPLA2 enzymes may be carried out by loading the 2-oleoyl phospholipid to a stenfilcon A lens, the contact lens of the invention, including contact lenses comprising 2-oleoyl phospholipid that have been determined to be susceptible to digestion by sPLA2 enzymes, need not be stenfilcon A lenses and may be silicone hydrogel lenses of any formulation. […]

[2] = target: T1, recombinant human PLA2G2A (sPLA2) (Homo sapiens, UniProt P14555); assay: Oleic acid release from phospholipid-loaded stenfilcon A lenses in ATF with and without sPLA2 (digestion assay, LCMS); format: biochemical; conditions: 35±2° C., 4 hours; for Oleic acid peak area in ATF + sPLA2: ATF with 50 ppm recombinant human PLA2G2A; for Oleic acid peak area in ATF + sPLA2 / Oleic acid peak area in ATF: 4 mm piece of loaded stenfilcon A lens, 100 μL; for Oleic acid peak area in ATF: ATF without sPLA2
T1 construct: purchased Creative BioMart PLA2G2A-669H
T1 sequence (P14555 21-144): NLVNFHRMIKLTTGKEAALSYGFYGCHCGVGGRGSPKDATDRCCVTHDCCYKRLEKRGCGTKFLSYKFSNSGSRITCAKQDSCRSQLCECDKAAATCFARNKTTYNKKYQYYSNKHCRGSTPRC
Experimental: The phospholipids shown in Table 1 were obtain from Avanti Polar Lipids. 3 mg/ml loading solutions of the phospholipids shown in Table 1 were prepared by adding 2.4 mL ethanol to 9 mg of phospholipid, sonicating (up to 15 minutes) then adding 0.6 mL DI water and sonicating again (up to 15 minutes) to dissolve the phospholipid.
Hydrated contact lenses made from stenfilcon A were washed three times in 3 mL purified water for 30 minutes each time. Each washed lens was placed in 3 mL of a phospholipid loading solution and incubated at room temperature with gentle shaking at 75 rpm for 3 hours. The loaded lenses were then rinsed and hydrated in several exchanges of DI water. The lenses were packaged in a buffered saline contact lens packaging solution and autoclaved.
An artificial tear fluid (ATF) was prepared by adding the first three ingredients listed in Table 2 to a clean class vial and then adding 30 mL of the fourth ingredient.
After autoclave each lens was removed from its package and place in a 6 mL glass vial containing 5 mL of the ATF at room temperature on a shaker at 125 rpm overnight to elute any free oleic acid that may be present in the lens.
Each lens was rinsed in a 6 ml glass vial containing a fresh aliquot of 5 mL ATF for 30 minutes prior to running the digestion assay.
A 50 ppm solution of sPLA2 was prepared in ATF by adding 200 μl ATF to a tube containing 10 μg recombinant human PLA2G2A (Creative BioMart, Cat. No. PLA2G2A-669H). The solution is referred to as ATF+sPLA2. Two 4 mm pieces were cut from each lens. One piece of each lens was placed in a tube with 100 μL ATF and the other piece was placed in a tube containing 100 μL ATF+sPLA2. The tubes were incubated at 35±2° C. for 4 hours with no shaking.
50 μl of the release media from each lens at T=4 hr was transferred to HPLC vials and 500 μl isopropanol (IPA) was added and mixed well. T=0 hr HPLC vials were also prepared (50 μl ATF+500 μl IPA). All vials were sonicated for 15 minutes and centrifuged. The supernatant was removed for LCMS injection.
The supernatants were injected on an LCMS instrument equipped with an ACQUITY UPLC BEH C18 […], 2.1 mm×15 cm column and running a mobile phase gradient from 65% A to 90% B at a flow rate of 0.35 mL/min with A=40% acetonitrile in water with 10 mM ammonium acetate and 0.2% (v/v) ammonium hydroxide, and B=10% acetonitrile in IPA with 10 mM ammonium acetate and 0.2% (v/v) ammonium hydroxide. The mass spec detector is run at negative electrospray mode. The peaks for oleic acid (OA) in the supernatants were measured (m/z trace=281.24). The ratio of OA peak area in ATF with and without sPLA2 was calculated.

Row | SMILES | Susceptibility to digestion by sPLA2 enzymes found in human tears [1] | Ratio of OA peak area in ATF with and without sPLA2 [2] | Oleic acid peak area in ATF + sPLA2 [2] | Oleic acid peak area in ATF [2]
1 | CCCCCCCCCCCCCC(=O)OC[C@H](COP(=O)([O-])OCC[N+](C)(C)C)OC(=O)CCCCCCCCCCCCC [DMPC, 1,2-dimyristoyl-sn-glycero-3-phosphocholine] | not be susceptible to digestion |  |  | 
2 | CCCCCCCC/C=C\CCCCCCCC(=O)OC[C@H](COP(=O)([O-])OCC[N+](C)(C)C)OC(=O)CCCCCCC/C=C\CCCCCCCC [DOPC, 1,2-dioleoyl-sn-glycero-3-phosphocholine, reference compound] |  | 1.2 | 125 | 102
3 | CCCCCCCC/C=C\CCCCCCCC(=O)OC[C@H](COP(=O)([O-])OCC(O)CO)OC(=O)CCCCCCC/C=C\CCCCCCCC.[Na+] (mixture of isomers) [DOPG, 1,2-dioleoyl-sn-glycero-3-phospho-(1′-rac-glycerol) (sodium salt)] |  | 279 | 9958 | 36
4 | CCCCCCCC/C=C\CCCCCCCC(=O)OC[C@H](COP(=O)(O)OCCN)OC(=O)CCCCCCC/C=C\CCCCCCCC [DOPE, 1,2-dioleoyl-sn-glycero-3-phosphoethanolamine] |  | 4.6 | 2127 | 463
5 | CCCCCCCC/C=C\CCCCCCCC(=O)OC[C@H](COP(=O)(O)OC[C@H](N)C(=O)O)OC(=O)CCCCCCC/C=C\CCCCCCCC [DOPS, 1,2-dioleoyl-sn-glycero-3-phospho-L-serine (sodium salt)] |  | 16.4 | 1437 | 88

Reference: patent publication US20240118559A1, “SUSTAINED RELEASE OF OLEIC ACID FROM CONTACT LENSES” (CooperVision International Limited, priority 2022, published 2024)
